Test results from patent publication US10392367B2, “IRE1 small molecule inhibitors” (QUENTIS THERAPEUTICS, INC., priority 2017, dated 2019).

target: IRE1a (Homo sapiens, UniProt O75460); test: In vitro FRET assay (XBP1 RNA probe cleavage by IRE1a); type: biochemical; set-up: purchased SignalChem; settings: SignalChem IRE1a protein 2 nM
Procedure: In vitro FRET assay was performed to evaluate the ability of select compounds to inhibit IRE1, the results of which are summarized in Table 3. To perform the in vitro FRET assay, 1× complete assay buffer (CAB; […] DTT, 50 mM sodium citrate pH 7.15, 1 mM magnesium acetate, 0.02% tween 20) was used to dilute SignalChem IRE1a protein to a final concentration of 2 nM. Selected compounds were serially diluted with DMSO in a non-binding black 384-well plate for a total of 15 ul in each well. 2 ul of the serially diluted compound or DMSO control were then added to new wells containing 98 ul of 1×CAB, for a total volume of 100 ul, 10 ul of which were then transferred to wells of a new plate. 5 ul of the diluted IRE1a was then added to each well. 5 ul of a […] XBP1 RNA probe was then added to each well. Fluorescence was then read over 30 minutes in kinetic mode (485/515 nm).
Two RNA probes were used, XBP1 wildtype (SEQ ID NO: 2) which is able to be spliced by active IRE1a or XBP1 mutant (SEQ ID NO: 3) which is unable to be spliced. Each probe contained a 5′ 6-FAM modification and a 3′ IOWA Black FQ modification.

Chain of IRE1a (O75460 19-977): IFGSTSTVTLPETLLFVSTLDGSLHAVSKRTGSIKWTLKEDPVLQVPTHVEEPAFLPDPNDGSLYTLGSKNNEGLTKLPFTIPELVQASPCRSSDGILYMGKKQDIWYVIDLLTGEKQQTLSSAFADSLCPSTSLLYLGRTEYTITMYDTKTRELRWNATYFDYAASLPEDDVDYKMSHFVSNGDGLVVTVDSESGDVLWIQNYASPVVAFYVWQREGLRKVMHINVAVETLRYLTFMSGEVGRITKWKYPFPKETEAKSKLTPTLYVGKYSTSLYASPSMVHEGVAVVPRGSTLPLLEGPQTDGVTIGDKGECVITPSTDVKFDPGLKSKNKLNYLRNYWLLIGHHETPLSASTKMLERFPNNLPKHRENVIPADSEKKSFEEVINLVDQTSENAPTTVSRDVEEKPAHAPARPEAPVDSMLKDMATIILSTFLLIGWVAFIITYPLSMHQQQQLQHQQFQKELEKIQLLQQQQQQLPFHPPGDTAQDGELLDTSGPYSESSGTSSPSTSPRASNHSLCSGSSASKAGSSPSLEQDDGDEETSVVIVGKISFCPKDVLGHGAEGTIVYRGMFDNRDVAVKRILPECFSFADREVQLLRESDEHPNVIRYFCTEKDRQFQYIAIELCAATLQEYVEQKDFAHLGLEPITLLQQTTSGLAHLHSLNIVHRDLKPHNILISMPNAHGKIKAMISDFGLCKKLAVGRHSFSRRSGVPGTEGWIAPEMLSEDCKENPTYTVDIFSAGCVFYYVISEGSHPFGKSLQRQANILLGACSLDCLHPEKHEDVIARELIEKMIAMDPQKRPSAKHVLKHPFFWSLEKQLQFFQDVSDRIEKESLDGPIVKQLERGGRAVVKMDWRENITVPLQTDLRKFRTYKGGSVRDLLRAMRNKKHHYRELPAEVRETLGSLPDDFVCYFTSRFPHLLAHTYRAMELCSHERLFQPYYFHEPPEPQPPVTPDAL

IC50 [nM] | Compound
> 100 | CCc1cc(-c2cc(NC(=O)Cc3cccc(C(F)(F)F)c3)nn2C)cc2cnc(N[C@H]3CC[C@H](O)CC3)nc12 [Compound 3, N-(5-(8-ethyl-2-(((1r,4r)-4-hydroxycyclohexyl)amino)quinazolin-6-yl)-1-methyl-1H-pyrazol-3-yl)-2-(3-(trifluoromethyl)phenyl)acetamide]
5 to 50 | CCc1cc(-c2cc(NC(=O)Cc3cc(C(F)(F)F)cc(C(F)(F)F)c3)nn2C)cc2cnc(N[C@H]3CC[C@H](N)CC3)nc12 [Compound 5, N-(5-(2-(((1r,4r)-4-aminocyclohexyl)amino)-8-ethylquinazolin-6-yl)-1-methyl-1H-pyrazol-3-yl)-2-(3,5-bis(trifluoromethyl)phenyl)acetamide]
5 to 50 | CCc1cc(-c2cc(NC(=O)[C@@H](O)c3ccccc3)nn2C)cc2cnc(N[C@H]3CC[C@H](N)CC3)nc12 [Compound 15, (S)-N-(5-(2-(((1r,4r)-4-aminocyclohexyl)amino)-8-ethylquinazolin-6-yl)-1-methyl-1H-pyrazol-3-yl)-2-hydroxy-2-phenylacetamide]
5 to 50 | CCc1cc(-c2cc(NC(=O)Cc3cccc(C#N)c3)nn2C)cc2cnc(N[C@H]3CC[C@H](N)CC3)nc12 [Compound 17, N-(5-(2-(((1r,4r)-4-aminocyclohexyl)amino)-8-ethylquinazolin-6-yl)-1-methyl-1H-pyrazol-3-yl)-2-(3-cyanophenyl)acetamide]
5 to 50 | CCc1cc(-c2cc(NC(=O)Cc3cc(F)cc(C(F)(F)F)c3)nn2C)cc2cnc(N[C@H]3CC[C@H](N)CC3)nc12 [Compound 20, N-(5-(2-(((1r,4r)-4-aminocyclohexyl)amino)-8-ethylquinazolin-6-yl)-1-methyl-1H-pyrazol-3-yl)-2-(3-fluoro-5-(trifluoromethyl)phenyl)acetamide]
50 to 100 | CCc1cc(-c2cc(NC(=O)Nc3cc(C(F)(F)F)cc(C(F)(F)F)c3)nn2C)cc2cnc(N[C@H]3CC[C@H](N)CC3)nc12 [Compound 21, 1-(5-(2-(((1r,4r)-4-aminocyclohexyl)amino)-8-ethylquinazolin-6-yl)-1-methyl-1H-pyrazol-3-yl)-3-(3,5-bis(trifluoromethyl)phenyl)urea]
> 100 | CCc1cc(-c2cc(NC(=O)[C@H](N)c3ccccc3)nn2C)cc2cnc(N[C@H]3CC[C@H](N)CC3)nc12 [Compound 22, (R)-2-amino-N-(5-(2-(((1r,4r)-4-aminocyclohexyl)amino)-8-ethylquinazolin-6-yl)-1-methyl-1H-pyrazol-3-yl)-2-phenylacetamide]
> 100 | CCc1cc(-c2cc(CC(=O)Nc3cccc(C(F)(F)F)c3)nn2C)cc2cnc(N[C@H]3CC[C@H](N)CC3)nc12 [Compound 23, 2-(5-(2-(((1r,4r)-4-aminocyclohexyl)amino)-8-ethylquinazolin-6-yl)-1-methyl-1H-pyrazol-3-yl)-N-(3-(trifluoromethyl)phenyl)acetamide]
> 100 | CCc1cc(-c2cc(NC(=O)[C@@H](N)c3ccccc3)nn2C)cc2cnc(N[C@H]3CC[C@H](N)CC3)nc12 [Compound 24, (S)-2-amino-N-(5-(2-(((1r,4r)-4-aminocyclohexyl)amino)-8-ethylquinazolin-6-yl)-1-methyl-1H-pyrazol-3-yl)-2-phenylacetamide]
> 100 | Cc1c(-c2cc(NC(=O)Cc3cc(C(F)(F)F)ccc3C(F)(F)F)nn2C)ccc2nc(N[C@H]3CC[C@H](N)CC3)ncc12 [Compound 45, N-(5-(2-(((1r,4r)-4-aminocyclohexyl)amino)-5-methylquinazolin-6-yl)-1-methyl-1H-pyrazol-3-yl)-2-(2,5-bis(trifluoromethyl)phenyl)acetamide]
> 100 | CCc1cc(-c2cc(NC(=O)Cc3cccc(C(F)(F)F)c3)nn2C)cc2cnc(N[C@H]3CC[C@H](N(C)CCOC)CC3)nc12 [Compound 46, N-(5-(8-ethyl-2-(((1r,4r)-4-((2-methoxyethyl)(methyl)amino)cyclohexyl)amino)quinazolin-6-yl)-1-methyl-1H-pyrazol-3-yl)-2-(3-(trifluoromethyl)phenyl)acetamide]
